# The source made the active and inactive calls. No cut-off for these calls is given here.
# Legend:
# [1] = biological target: T1, 5-hydroxytryptamine receptor 2A (Homo sapiens, UniProt P28223); assay: Displacement of [3H]ketanserin from human recombinant 5HT2A receptor expressed in mouse NIH3T3 cells; assay type: cell-based
# [2] = biological target: T2, 5-hydroxytryptamine receptor 2C (Homo sapiens, UniProt P28335); assay: Displacement of [3H]mesulergine from human recombinant 5HT2C receptor expressed in CHO cells; assay type: cell-based
# T2 sequence (P28335 whole entry): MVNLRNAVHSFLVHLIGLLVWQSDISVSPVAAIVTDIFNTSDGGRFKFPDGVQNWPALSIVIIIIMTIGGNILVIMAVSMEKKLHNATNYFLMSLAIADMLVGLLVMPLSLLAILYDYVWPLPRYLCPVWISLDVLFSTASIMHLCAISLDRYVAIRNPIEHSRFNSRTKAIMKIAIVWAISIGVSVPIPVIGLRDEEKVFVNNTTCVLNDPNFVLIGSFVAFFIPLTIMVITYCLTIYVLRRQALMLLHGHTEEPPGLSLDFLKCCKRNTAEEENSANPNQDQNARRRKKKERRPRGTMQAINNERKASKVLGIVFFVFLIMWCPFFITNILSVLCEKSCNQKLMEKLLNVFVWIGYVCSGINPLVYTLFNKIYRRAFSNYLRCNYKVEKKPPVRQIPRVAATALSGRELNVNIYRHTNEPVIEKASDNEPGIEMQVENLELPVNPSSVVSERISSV
# [3] = biological target: T1, 5-hydroxytryptamine receptor 2A; conditions: NIH3T3
# Description: Antagonist activity at human recombinant 5HT2A receptor expressed in mouse NIH3T3 cells assessed as increase in calcium levels
# [4] = biological target: T3, 5-hydroxytryptamine receptor 2B (Homo sapiens, UniProt P41595); assay: Antagonist activity at human recombinant 5HT2B receptor expressed in CHO cells assessed as increase in calcium levels; assay type: functional, cell-based
# T3 sequence (P41595 whole entry): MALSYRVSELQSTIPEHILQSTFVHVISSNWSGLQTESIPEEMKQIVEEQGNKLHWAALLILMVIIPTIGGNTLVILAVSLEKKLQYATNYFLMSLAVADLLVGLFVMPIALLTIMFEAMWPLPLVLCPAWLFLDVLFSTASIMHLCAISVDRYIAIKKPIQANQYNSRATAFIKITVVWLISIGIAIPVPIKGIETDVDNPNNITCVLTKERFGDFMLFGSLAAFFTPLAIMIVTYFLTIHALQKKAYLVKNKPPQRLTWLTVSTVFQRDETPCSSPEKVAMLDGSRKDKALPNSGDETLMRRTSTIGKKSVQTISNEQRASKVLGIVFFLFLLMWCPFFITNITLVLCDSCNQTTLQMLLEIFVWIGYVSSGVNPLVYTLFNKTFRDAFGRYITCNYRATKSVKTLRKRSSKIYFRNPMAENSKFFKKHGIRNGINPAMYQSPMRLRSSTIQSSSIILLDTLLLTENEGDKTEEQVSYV
# [5] = biological target: T3, 5-hydroxytryptamine receptor 2B; assay: Displacement of [3H]mesulergine from human recombinant 5HT2B receptor expressed in CHO cells; assay type: cell-based
# [6] = biological target: T1, 5-hydroxytryptamine receptor 2A; assay: Binding affinity at 5HT2A receptor
# [7] = biological target: T2, 5-hydroxytryptamine receptor 2C; assay: Binding affinity at 5HT2C receptor
# [8] = biological target: T3, 5-hydroxytryptamine receptor 2B; assay: Binding affinity at 5HT2B receptor
# T1 sequence (P28223 whole entry): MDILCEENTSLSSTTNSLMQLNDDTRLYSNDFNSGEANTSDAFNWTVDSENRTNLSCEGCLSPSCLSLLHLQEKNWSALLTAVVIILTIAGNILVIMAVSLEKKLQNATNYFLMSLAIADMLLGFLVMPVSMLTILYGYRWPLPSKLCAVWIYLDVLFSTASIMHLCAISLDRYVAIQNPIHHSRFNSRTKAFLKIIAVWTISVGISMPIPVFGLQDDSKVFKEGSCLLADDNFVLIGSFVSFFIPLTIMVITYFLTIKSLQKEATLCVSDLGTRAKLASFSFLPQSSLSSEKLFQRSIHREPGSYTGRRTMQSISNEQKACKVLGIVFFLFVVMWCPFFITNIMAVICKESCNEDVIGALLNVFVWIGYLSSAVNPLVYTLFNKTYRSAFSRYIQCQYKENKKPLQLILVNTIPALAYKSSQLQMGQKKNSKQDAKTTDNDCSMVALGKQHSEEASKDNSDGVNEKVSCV
Structure (SMILES),Ki [1],Ki [2],Ki [5],other results
Fc1ccc(-c2nc(C3CC3)nc3c2CNCC3)cc1,40 nM,5000 nM,–,–
Cc1ccc(-c2nc(C3CCCC3)nc3c2CCNCC3)cc1,–,23 nM,–,–
CC(C)c1nc2c(c(-c3ccc(F)cc3)n1)CCNCC2,4 nM,–,–,–
Fc1ccc(Cc2nc3c(c(-c4ccc(F)cc4)n2)CCNCC3)cc1,0.7 nM,–,–,pKb [3]: 8.2; Activity [4]: inactive
Fc1ccc(-c2nc(Cc3ccccc3)nc3c2CCCNC3)cc1,8.8 nM,150 nM,–,–
CN(C)CCO/N=C(/C=C/c1ccc(O)cc1)c1ccccc1F,–,–,–,Activity [4]: inactive
Cc1ccc(-c2nc(Cc3ccccc3)nc3c2CCNCC3)cc1,0.4 nM,15 nM,–,–
Cc1nc2c(c(-c3ccc(Cl)cc3)n1)CCNCC2,1200 nM,5000 nM,270 nM,–
FC(F)(F)c1ccc(-c2nc(Cc3ccccc3)nc3c2CCNCC3)cc1,0.8 nM,–,–,–
Cc1nc2n(c(=O)c1CCN1CCC(c3noc4cc(F)ccc34)CC1)CCCC2,–,–,–,Activity [4]: inactive
Fc1ccc(-c2nc(C3CCC3)nc3c2CNCC3)cc1,11 nM,410 nM,210 nM,–
Fc1ccc(-c2nc(Cc3ccccc3)nc3c2CNCCC3)cc1,–,5000 nM,10000 nM,–
N#Cc1ccc(-c2nc(C3CCCC3)nc3c2CCNCC3)cc1,34 nM,460 nM,20 nM,–
Fc1ccc(-c2nc(C3CCCC3)nc3c2CCNCC3)cc1,13 nM,–,–,–
Fc1ccc(-c2nc(-c3ccccc3)nc3c2CNCC3)cc1,50 nM,–,–,–
Fc1ccc(Cc2nc3c(c(-c4ccc(F)cc4)n2)CNCC3)cc1,13 nM,–,–,pKb [3]: 7.1; Activity [4]: inactive
Fc1ccc(-c2nc(Cc3ccccc3)nc3c2CCNCC3)cc1,0.6 nM,–,–,–
CC(C)(C)c1nc2c(c(-c3ccc(F)cc3)n1)CNCC2,5 nM,100 nM,–,–
Fc1ccc(-c2nc(Cc3ccccc3)nc3c2CCNC3)cc1,9 nM,–,310 nM,–
"COc1cccc(C(O)C2CCN(CCc3ccc(F)cc3)CC2)c1OC (single isomer, unassigned)",–,–,–,Activity [4]: inactive
CCN(CC)c1nc2c(c(-c3ccc(C)cc3)n1)CNCC2,–,–,–,Ki [6]: 20 nM; Ki [7]: 300 nM; Ki [8]: 70 nM
Cc1nc2sccn2c(=O)c1CCN1CCC(=C(c2ccc(F)cc2)c2ccc(F)cc2)CC1,–,–,–,Activity [4]: inactive
Fc1ccc(-c2nc(C3CCCC3)nc3c2CNCC3)cc1,2.2 nM,110 nM,220 nM,pKb [3]: 8.1; Activity [4]: inactive
Fc1ccc(-c2nc(Cc3ccccc3)nc3c2CNCC3)cc1,20 nM,400 nM,2500 nM,–
COc1ccc(-c2nc(C3CCCC3)nc3c2CCNCC3)cc1,11 nM,120 nM,4.8 nM,–
